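How tested: cells in 96-well plates exposed to compound for 48 hours at five concentrations. The concentration for 50% growth inhibition is given as GI50. Definition used: TGI = concentration required for complete inhibition of growth.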
These compounds were tested on HL-60(TB) leukemia (assay: DTP human tumour cell line panel, 48 h).

Structure (SMILES)	GI50 [µM]	TGI [µM]
Cn1c(=O)c(Oc2ccc(F)cc2)cc2cnc(NC3CCOCC3)nc21	> 25	> 25
Clc1nc(Cl)nc(Nc2cccc3ccccc23)n1	> 100	> 100
Nc1c(C(=O)c2ccccc2)cnn1-c1ccc(F)cc1	> 25	> 25
C#Cc1nc(Nc2cc(C)[nH]n2)c2ccccc2n1	0.265	0.887
Cc1nc2cc(Nc3nc(Nc4ccc(F)cc4)nc(-c4cccs4)n3)ccc2n1Cc1ccccc1	2.46	6.5

These compounds were tested on IGROV1 ovarian (assay: DTP human tumour cell line panel, 48 h).

Structure (SMILES)	GI50 [µM]	TGI [µM]
COc1ccc(-c2nsc3c2NC(=O)CC3c2cccc(OC)c2)cc1 (configuration not stated)	2.18	> 100
O=[N+]([O-])c1ccc(CI)cc1	4.31	14.8
CCN(Cc1ccc(F)cc1)c1ccc(CO)c(Br)c1	0.0402	0.202
COc1ccc(-c2cc(/C=C/C(=O)c3ccc(OC)c(OC)c3)[nH]n2)cc1	1.57	3.65
CC(=O)N1CCC(=O)/C(=C/c2ccccc2)C1	–	46.4
COc1ccc(C(O)(CCC(C)C)C(CN2CCOCC2)c2ccc(Cl)cc2)cc1 (configuration not stated)	14.2	54.2
COc1cc(/C=C\c2cc(OC)c(OC)c(OC)c2)cc(N/C=C\C(=O)c2cc(OC)c(OC)c(OC)c2)c1OC	6.06	> 100
Cn1c(=O)c(Oc2ccc(F)cc2)cc2cnc(NC3CCOCC3)nc21	> 25	> 25
Clc1nc(Cl)nc(Nc2cccc3ccccc23)n1	> 100	> 100
Nc1c(C(=O)c2ccccc2)cnn1-c1ccc(F)cc1	> 25	> 25
C#Cc1nc(Nc2cc(C)[nH]n2)c2ccccc2n1	0.22	0.563
Cc1nc2cc(Nc3nc(Nc4ccc(F)cc4)nc(-c4cccs4)n3)ccc2n1Cc1ccccc1	3.62	12.9

What follows are compounds tested on RPMI-8226 leukemia (assay: DTP human tumour cell line panel, 48 h).

Structure (SMILES)	GI50 [µM]	TGI [µM]
COc1ccc(-c2nsc3c2NC(=O)CC3c2cccc(OC)c2)cc1 (configuration not stated)	1.61	> 100
O=[N+]([O-])c1ccc(CI)cc1	2.3	5.68
CCN(Cc1ccc(F)cc1)c1ccc(CO)c(Br)c1	0.646	22.1
COc1ccc(-c2cc(/C=C/C(=O)c3ccc(OC)c(OC)c3)[nH]n2)cc1	0.32	1.33
CC(=O)N1CCC(=O)/C(=C/c2ccccc2)C1	–	> 100
COc1ccc(C(O)(CCC(C)C)C(CN2CCOCC2)c2ccc(Cl)cc2)cc1 (configuration not stated)	8.76	31.2
COc1cc(/C=C\c2cc(OC)c(OC)c(OC)c2)cc(N/C=C\C(=O)c2cc(OC)c(OC)c(OC)c2)c1OC	3.04	> 100
Cn1c(=O)c(Oc2ccc(F)cc2)cc2cnc(NC3CCOCC3)nc21	> 25	> 25
Clc1nc(Cl)nc(Nc2cccc3ccccc23)n1	39.8	> 100
Nc1c(C(=O)c2ccccc2)cnn1-c1ccc(F)cc1	> 25	> 25
C#Cc1nc(Nc2cc(C)[nH]n2)c2ccccc2n1	0.0835	0.46
Cc1nc2cc(Nc3nc(Nc4ccc(F)cc4)nc(-c4cccs4)n3)ccc2n1Cc1ccccc1	2.07	5.91

What follows are compounds tested on SF-295 CNS (assay: DTP human tumour cell line panel, 48 h).

Structure (SMILES)	GI50 [µM]	TGI [µM]
COc1ccc(-c2nsc3c2NC(=O)CC3c2cccc(OC)c2)cc1 (configuration not stated)	1.54	12.4
O=[N+]([O-])c1ccc(CI)cc1	3.76	13.7
CCN(Cc1ccc(F)cc1)c1ccc(CO)c(Br)c1	0.148	2.3
COc1ccc(-c2cc(/C=C/C(=O)c3ccc(OC)c(OC)c3)[nH]n2)cc1	2.08	5.37
CC(=O)N1CCC(=O)/C(=C/c2ccccc2)C1	–	> 100
COc1ccc(C(O)(CCC(C)C)C(CN2CCOCC2)c2ccc(Cl)cc2)cc1 (configuration not stated)	13.4	29.8
COc1cc(/C=C\c2cc(OC)c(OC)c(OC)c2)cc(N/C=C\C(=O)c2cc(OC)c(OC)c(OC)c2)c1OC	2.4	> 100
Cn1c(=O)c(Oc2ccc(F)cc2)cc2cnc(NC3CCOCC3)nc21	> 25	> 25
Clc1nc(Cl)nc(Nc2cccc3ccccc23)n1	64	> 100
Nc1c(C(=O)c2ccccc2)cnn1-c1ccc(F)cc1	> 25	> 25
C#Cc1nc(Nc2cc(C)[nH]n2)c2ccccc2n1	0.609	2.26
Cc1nc2cc(Nc3nc(Nc4ccc(F)cc4)nc(-c4cccs4)n3)ccc2n1Cc1ccccc1	3.61	16.7

Each compound was assayed on COLO 205 colon (assay: DTP human tumour cell line panel, 48 h).

Structure (SMILES)	GI50 [µM]	TGI [µM]
COc1ccc(-c2nsc3c2NC(=O)CC3c2cccc(OC)c2)cc1 (configuration not stated)	0.801	6.92
O=[N+]([O-])c1ccc(CI)cc1	2	3.76
CCN(Cc1ccc(F)cc1)c1ccc(CO)c(Br)c1	0.966	4.98
COc1ccc(-c2cc(/C=C/C(=O)c3ccc(OC)c(OC)c3)[nH]n2)cc1	1.76	3.3
CC(=O)N1CCC(=O)/C(=C/c2ccccc2)C1	–	> 100
COc1ccc(C(O)(CCC(C)C)C(CN2CCOCC2)c2ccc(Cl)cc2)cc1 (configuration not stated)	12.7	30.9
COc1cc(/C=C\c2cc(OC)c(OC)c(OC)c2)cc(N/C=C\C(=O)c2cc(OC)c(OC)c(OC)c2)c1OC	2.31	5.7
Cn1c(=O)c(Oc2ccc(F)cc2)cc2cnc(NC3CCOCC3)nc21	> 25	> 25
Clc1nc(Cl)nc(Nc2cccc3ccccc23)n1	> 100	> 100
Nc1c(C(=O)c2ccccc2)cnn1-c1ccc(F)cc1	> 25	> 25
C#Cc1nc(Nc2cc(C)[nH]n2)c2ccccc2n1	0.279	0.674
Cc1nc2cc(Nc3nc(Nc4ccc(F)cc4)nc(-c4cccs4)n3)ccc2n1Cc1ccccc1	3.7	12.9
